Results: ChEMBL document CHEMBL4725412, “Augmenting the Activity of Macrolide Adjuvants against Acinetobacter baumannii” (2020)

Experiments:
Assay type in all cases: functional
[1] = test system: Acinetobacter baumannii; experiment: Antibacterial activity against Acinetobacter baumannii 3806 assessed as reduction in microbial growth incubated for 16 hrs by broth microdilution method
[2] = test system: Acinetobacter baumannii; experiment: Potentiation of clarithromycin-induced antibacterial activity against Acinetobacter baumannii 3927 assessed as fold reduction in clarithromycin MIC at 7.5 uM incubated for 16 hrs by broth microdilution method
[3] = test system: Acinetobacter baumannii; experiment: Potentiation of clarithromycin-induced antibacterial activity against Acinetobacter baumannii 3785 assessed as fold reduction in clarithromycin MIC at 7.5 uM incubated for 16 hrs by broth microdilution method
[4] = test system: Acinetobacter baumannii; experiment: Potentiation of clarithromycin-induced antibacterial activity against Acinetobacter baumannii 4269 assessed as fold reduction in clarithromycin MIC at 7.5 uM incubated for 16 hrs by broth microdilution method
[5] = test system: Acinetobacter baumannii; experiment: Potentiation of clarithromycin-induced antibacterial activity against Acinetobacter baumannii AB5075 assessed as fold reduction in clarithromycin MIC at 5 uM incubated for 16 hrs in presence of clarithromycin by broth microdilution method
[6] = test system: Acinetobacter baumannii; experiment: Antibacterial activity against Acinetobacter baumannii 5197 assessed as reduction in microbial growth incubated for 16 hrs by broth microdilution method
[7] = test system: Acinetobacter baumannii; experiment: Antibacterial activity against Acinetobacter baumannii 4269 assessed as reduction in microbial growth incubated for 16 hrs by broth microdilution method
[8] = test system: Acinetobacter baumannii; experiment: Potentiation of clarithromycin-induced antibacterial activity against Acinetobacter baumannii 4448 assessed as fold reduction in clarithromycin MIC at 7.5 uM incubated for 16 hrs by broth microdilution method
[9] = test system: Acinetobacter baumannii; experiment: Antibacterial activity against Acinetobacter baumannii 4878 assessed as reduction in microbial growth incubated for 16 hrs by broth microdilution method
[10] = test system: Acinetobacter baumannii; experiment: Antibacterial activity against Acinetobacter baumannii 4052 assessed as reduction in microbial growth incubated for 16 hrs by broth microdilution method
[11] = test system: Acinetobacter baumannii; experiment: Antibacterial activity against Acinetobacter baumannii 4456 assessed as reduction in microbial growth incubated for 16 hrs by broth microdilution method

SMILES: Cl.Nc1nc(-c2ccc(NC(=O)Nc3cc(Br)cc(Br)c3)cc2)c[nH]1
- MIC [1]: 25 µM
- fold change (FC) [2]: 16
- fold change (FC) [3]: 16
- fold change (FC) [4]: 16
- fold change (FC) [5]: 8
- MIC [6]: 25 µM
- MIC [7]: 25 µM
- fold change (FC) [8]: 16
- MIC [9]: 25 µM
- MIC [10]: 25 µM
- MIC [11]: 25 µM
